The numbers were not newly measured in PMC10449632, “Structural basis for translation inhibition by the glycosylated drosocin peptide” (Nature Chemical Biology, 2023), which cites them from elsewhere.

As a reminder, the IC50 is the concentration needed to halve the response being measured.

For this data set, the system named is in vitro translation, E. coli PURExpress system, firefly luciferase (Fluc) mRNA. Conditions: using the same system; cited from earlier work. How it is done: Unmodified wild-type drosocin and Dro-3P have been reported to inhibit in vitro translation reactions[25],[26]; however, the naturally occurring glycosylated forms of drosocin have not been previously tested. To investigate this, we compared the effect of increasing concentrations (0–150 μM) of modified Dro1 and Dro2 with unmodified Dro, Dro-3P and Api137 using a cell-free in vitro translation system and firefly luciferase (Fluc) mRNA as a template (Fig. 1e), as we have used previously for assessing the activity of other PrAMPs[4],[6],[8],[9],[32],[33].

On to “Bac7: type I PrAMP of mammalian origin (RRIRPRPPRLPRPRPRPLPFPRPGPRPIPRPLPFPRPGPRPIPRPLPFPRPGPRPIPRP; Bactenecin 7; UniProt P19661 131-189, looked up)”, for which the IC50 is < 1000 nM.
